Experimental data taken from ChEMBL document CHEMBL4184192, “5-HT1A and 5-HT2A receptors affinity, docking studies and pharmacological evaluation of a series of 8-acetyl-7-hydroxy-4-methylcoumarin derivatives” (Bioorg Med Chem, 2018).
The source made the active and inactive calls. The calls are words filed in the database; no cut-off is given here.

Columns and labels:
[1] = target: T1, 5-hydroxytryptamine receptor 1A (Homo sapiens, UniProt P08908); experiment: Displacement of [3H]-8-OH-DPAT from human 5-HT1A receptor expressed in CHO-K1 cell membranes after 60 mins by microbeta scintillation counting analysis
T1 sequence (P08908 whole entry): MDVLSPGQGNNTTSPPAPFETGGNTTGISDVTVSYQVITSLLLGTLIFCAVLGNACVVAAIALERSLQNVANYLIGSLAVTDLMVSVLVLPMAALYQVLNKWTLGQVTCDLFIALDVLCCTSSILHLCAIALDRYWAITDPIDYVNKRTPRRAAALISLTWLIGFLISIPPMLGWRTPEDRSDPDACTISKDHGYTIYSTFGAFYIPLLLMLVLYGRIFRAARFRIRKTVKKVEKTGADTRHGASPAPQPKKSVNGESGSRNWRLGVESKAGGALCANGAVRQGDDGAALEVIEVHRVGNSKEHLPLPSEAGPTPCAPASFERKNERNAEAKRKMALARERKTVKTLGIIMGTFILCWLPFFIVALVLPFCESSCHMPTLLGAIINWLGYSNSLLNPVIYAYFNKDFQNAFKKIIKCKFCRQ

[2] = target: 5-hydroxytryptamine receptor 2A (Homo sapiens, UniProt P28223); experiment: Displacement of [3H]-ketanserin from human 5-HT2A receptor expressed in CHO-K1 cell membranes after 60 mins by microbeta scintillation counting analysis; assay type: cell-based
5-hydroxytryptamine receptor 2A, sequence (P28223 whole entry): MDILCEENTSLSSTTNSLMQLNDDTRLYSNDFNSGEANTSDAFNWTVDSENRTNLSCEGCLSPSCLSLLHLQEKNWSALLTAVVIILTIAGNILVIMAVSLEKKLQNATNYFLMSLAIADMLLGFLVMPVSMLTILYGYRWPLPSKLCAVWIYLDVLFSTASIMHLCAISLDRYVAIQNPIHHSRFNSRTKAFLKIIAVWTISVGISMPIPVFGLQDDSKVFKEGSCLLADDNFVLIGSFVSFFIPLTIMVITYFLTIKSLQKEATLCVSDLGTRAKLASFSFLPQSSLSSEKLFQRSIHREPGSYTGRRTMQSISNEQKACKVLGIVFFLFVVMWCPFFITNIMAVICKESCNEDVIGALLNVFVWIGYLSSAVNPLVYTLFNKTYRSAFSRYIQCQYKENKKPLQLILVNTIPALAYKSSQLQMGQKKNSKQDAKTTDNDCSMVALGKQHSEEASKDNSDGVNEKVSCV

Mus musculus [3] = experiment: Antidepressant activity in Balb/c mouse assessed as decrease in immobility time administered ip 30 mins prior to test measured for 6 mins by tail suspension test; assay type: functional, organism-based
[4] = target: T2, 5-hydroxytryptamine receptor 1A (Rattus norvegicus, UniProt P19327); experiment: Agonist activity at 5-HT1A receptor in Sprague-Dawley rat hippocampal membranes after 90 mins by microbeta scintillation counting based [35S]GTPgammaS binding assay; assay type: functional
T2 sequence (P19327 whole entry): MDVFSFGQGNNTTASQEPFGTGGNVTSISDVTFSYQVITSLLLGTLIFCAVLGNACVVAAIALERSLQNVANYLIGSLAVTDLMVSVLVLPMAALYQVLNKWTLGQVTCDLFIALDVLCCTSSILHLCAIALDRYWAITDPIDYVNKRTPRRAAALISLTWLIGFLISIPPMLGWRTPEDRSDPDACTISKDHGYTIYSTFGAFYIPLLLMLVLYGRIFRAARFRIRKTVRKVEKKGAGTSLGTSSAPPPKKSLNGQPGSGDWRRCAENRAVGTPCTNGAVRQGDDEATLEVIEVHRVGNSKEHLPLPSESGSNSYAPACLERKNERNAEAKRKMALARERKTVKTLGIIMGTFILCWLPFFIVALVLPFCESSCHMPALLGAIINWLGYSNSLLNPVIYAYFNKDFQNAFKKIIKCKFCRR

[5] = target: T3, 5-hydroxytryptamine receptor 1A (Rattus norvegicus) (UniProt P19327); experiment: Antagonist activity at 5-HT1A receptor in Sprague-Dawley rat hippocampal membranes assessed as inhibition of 8-OH-DPAT-induced receptor activation at 10^-10 to 10^-5 M after 90 mins by microbeta scintillation counting based [35S]GTPgammaS binding assay relative to control; assay type: functional
T3 sequence (whole entry): T2 sequence (P19327 whole entry)

Mus musculus [6] = experiment: Toxicity in Balb/c mouse assessed as alterations in despair-related locomotor activity at 0.3 to 10 mg/kg, ip administered 30 mins prior to test; assay type: organism-based; details: in vivo, 0.5 h
[7] = target: T3, 5-hydroxytryptamine receptor 1A (Rattus norvegicus); experiment: Agonist activity at 5-HT1A receptor in Sprague-Dawley rat hippocampal membranes at 10^-10 to 10^-5 M after 90 mins by microbeta scintillation counting based [35S]GTPgammaS binding assay relative to control; assay type: functional
[8] = target: T2, 5-hydroxytryptamine receptor 1A; experiment: Antagonist activity at 5-HT1A receptor in Sprague-Dawley rat hippocampal membranes assessed as inhibition of 8-OH-DPAT-induced receptor activation after 90 mins by microbeta scintillation counting based [35S]GTPgammaS binding assay; assay type: functional
Mus musculus [9] = experiment: Toxicity in Balb/c mouse assessed as alterations in visible locomotor activity at 0.3 to 10 mg/kg, ip administered 30 mins prior to test; assay type: organism-based; details: in vivo, 0.5 h
Mus musculus [10] = experiment: Antidepressant activity in Balb/c mouse assessed as decrease in immobility time at 0.3 to 1 mg/kg, ip administered 30 mins prior to test measured for 6 mins by tail suspension test; assay type: functional, organism-based
Mus musculus [11] = experiment: Pro-depressant activity in Balb/c mouse assessed as decrease in immobility time at 3 to 10 mg/kg, ip administered 30 mins prior to test measured for 6 mins by tail suspension test; assay type: ADME, organism-based; details: in vivo, 0.1 h
Mus musculus [12] = experiment: Pro-depressant activity in Balb/c mouse assessed as decrease in immobility time administered ip 30 mins prior to test measured for 6 mins by tail suspension test; assay type: ADME, organism-based; details: in vivo, 0.1 h
Mus musculus [13] = organism: Mus musculus; experiment: Pro-depressant activity in Balb/c mouse assessed as decrease in home cage activity; assay type: ADME, organism-based; details: in vivo

CC(=O)c1c(OCCCCN2CCN(c3ccccc3Cl)CC2)ccc2c(C)cc(=O)oc12
Ki [1]: 0.9 nM | Ki [2]: 20 nM

CNCCC(Oc1ccc(C(F)(F)F)cc1)c1ccccc1 (configuration not stated)
Activity (Mus musculus [3]): Dose-dependent effect

COc1ccccc1N1CCN(CCCOc2ccc3c(C)cc(=O)oc3c2C(C)=O)CC1
EC50 [4]: 2 nM | Ki [1]: 0.6 nM | inhibition [5]: 70% | Ki [2]: 8 nM | Activity (Mus musculus [6]): Non-Toxic | Emax [7]: 108% | EC50 [8]: 631 nM | Activity (Mus musculus [9]): Non-Toxic

CC(=O)c1c(OCCCCN2CCN(c3ccccc3Br)CC2)ccc2c(C)cc(=O)oc12
Ki [1]: 1.5 nM | Ki [2]: 10 nM

CC(=O)c1c(OCCCN2CCN(c3cc(C)cc(C)c3)CC2)ccc2c(C)cc(=O)oc12
Ki [1]: 0.9 nM | Ki [2]: 12.5 nM

CC(=O)c1c(OCCCN2CCN(c3ccccc3Br)CC2)ccc2c(C)cc(=O)oc12
EC50 [4]: 39.8 nM | Ki [1]: 0.5 nM | inhibition [5]: 82% | Ki [2]: 7 nM | Activity (Mus musculus [10]): inactive | Emax [7]: 112% | EC50 [8]: 126 nM | Activity (Mus musculus [11]): Toxic | Activity (Mus musculus [12]): Dose-dependent effect | Activity (Mus musculus [13]): Toxic

CC(=O)c1c(OCCCCN2CCN(c3cc(C)ccc3C)CC2)ccc2c(C)cc(=O)oc12
Ki [1]: 5.4 nM | Ki [2]: 46.8 nM

CC(=O)c1c(OCCCCN2CCN(c3ccccc3C(F)(F)F)CC2)ccc2c(C)cc(=O)oc12
Ki [1]: 11 nM | Ki [2]: 48.7 nM

CC(=O)c1c(OCCCN2CCN(c3ccccc3Cl)CC2)ccc2c(C)cc(=O)oc12
Ki [1]: 2 nM | Ki [2]: 22 nM

COc1ccccc1N1CCN(CCCCOc2ccc3c(C)cc(=O)oc3c2C(C)=O)CC1
Ki [1]: 1 nM | Ki [2]: 56 nM

CC(=O)c1c(OCCCCN2CCN(c3cccc(Br)c3)CC2)ccc2c(C)cc(=O)oc12
Ki [1]: 2.5 nM | Ki [2]: 6.5 nM

CC(=O)c1c(OCCCN2CCN(c3cccc(Br)c3)CC2)ccc2c(C)cc(=O)oc12
Ki [1]: 3.5 nM | Ki [2]: 6 nM

CC(=O)c1c(OCCCN2CCN(c3cccc(F)c3)CC2)ccc2c(C)cc(=O)oc12
Ki [1]: 1350 nM | Ki [2]: 408 nM

CC(=O)c1c(OCCCN2CCN(c3cc(C)ccc3C)CC2)ccc2c(C)cc(=O)oc12
Ki [1]: 14 nM | Ki [2]: 102 nM

CC(=O)c1c(OCCCN2CCN(c3ccccc3C(F)(F)F)CC2)ccc2c(C)cc(=O)oc12
Ki [1]: 8.8 nM | Ki [2]: 20 nM

CC(=O)c1c(OCCCCN2CCN(c3cc(C)cc(C)c3)CC2)ccc2c(C)cc(=O)oc12
Ki [1]: 3.7 nM | Ki [2]: 58 nM

CC(=O)c1c(OCCCCN2CCN(c3cccc(F)c3)CC2)ccc2c(C)cc(=O)oc12
Ki [1]: 50 nM | Ki [2]: 400 nM
